Columns and labels:
Assay type in all cases: in vivo
[1] = tested on: oral cavity; test: Flavor and sensory characteristics at use level of 25 ppm in water
[2] = tested on: oral cavity; test: Sensory evaluation in cherry-flavored hard candy; details: 0.2 grams added to recipe yielding 200 grams of hard candy; versus control candy
Description: The following formulation was prepared: […]
The above formulation was added to a stainless steel pot. With constant mixing, the formulation temperature was raised to 295° F. The pot was then removed from the heat, and 0.3 grams of cherry flavor containing the ingredients in equal amounts benzaldehyde, tolyl aldehyde, ethyl acetate, maltol, Davana oil and methyl heptinyl carbonate and 1.2 grams of citric acid was added. The resulting liquid candy was then deposited into molds, and the molds containing the liquid candy were cooled to room temperature, yielding 200 grams of finished hard candy. […] A second candy sample was prepared using the above recipe modified by the addition of 0.2 grams of menthyl succinamide prepared according to the procedure of Example I (A).

[3] = tested on: oral cavity; test: Sensory evaluation in fruity citrus chewing gum; details: 1 part by weight added to gum of 100 parts chicle, 4 parts flavor, 300 parts sucrose, 100 parts corn syrup; versus control gum
Description: 100 parts by weight of chicle were mixed with 4 parts by weight of a fruity citrus gum flavor which was a blend of lemon oil, ethyl butyrate, ethyl acetate, benzaldehyde, citral and alpha ionone in equal portions. To the resulting mixture, 300 parts by weight of sucrose and 100 parts by weight of corn syrup were added. Mixing was effected in a ribbon blender with jacketed sidewalls, manufactured by Baker Perkins Co. The resultant chewing gum blend was then manufactured into strips 1 inch in width and 0.1 inches in thickness. These strips were cut into lengths of 3 inches each. […] A second gum sample was prepared using the above recipe with the addition of 1 part by weight of menthyl N,N-dimethyl succinamide, prepared according to Example I(C).

Row | Molecule | Cooling Duration [1] [min] | Onset Time [1] [s] | cooling effect in hard candy [2] | cooling effect in chewing gum [3]
1 | CC(C)[C@@H]1CC[C@@H](C)C[C@H]1OC(=O)CCC(N)=O [Example I(A), Butanoic acid, 4-amino-4-oxo, (5-methyl-2-(1-methylethyl)cyclohexyl)ester, (1R-(1α,2β,5α))-] | 7.5 | 8 to 25 | moderately strong and substantive cooling effect | –
2 | CNC(=O)CCC(=O)O[C@@H]1C[C@H](C)CC[C@H]1C(C)C [Example I(B), Butanoic acid, 4-methylamino-4-oxo, (5-methyl-2-(1-methylethyl)cyclohexyl)ester, (1R-(1α,2β,5α))] | 7 | 15 to 25 | – | –
3 | CC(C)[C@@H]1CC[C@@H](C)C[C@H]1OC(=O)CCC(=O)N(C)C [Example I(C), Butanoic acid, 4-dimethylamino-4-oxo, (5-methyl-2-(1-methylethyl)cyclohexyl)ester, (1R-(1α,2β,5α))-] | 11.25 | 25 | – | pleasant and substantive cooling effect on the tongue and roof of the mouth
4 | CC(C)[C@@H]1CC[C@@H](C)C[C@H]1OC(=O)CCC(=O)NCCO [Example I(E), Butanoic acid, 4-(2-hydroxyethyl)amino-4-oxo, (5-methyl-2-(1-methylethyl)cyclohexyl) ester, (1R-(1α,2β,5α))-] | 15 | 11 | – | –
5 | CC(C)[C@@H]1CC[C@@H](C)C[C@H]1OC(=O)CCCCC(=O)O [Example I(I), Hexanedioic acid, mono(5-methyl-2-(1-methylethyl)cyclohexyl) ester, (1R-(1α,2β,5α))-] | 10.5 | 34 | – | –
6 | CCNC(=O)CCC(=O)O[C@@H]1C[C@H](C)CC[C@H]1C(C)C [I(D), Butanoic acid, 4-ethylamino-4-oxo, (5-methyl-2-(1-methylethyl)cyclohexyl)ester, (1R-(1α,2β,5α))-] | 7 | 35 | – | –
7 | Pentanoic acid, 4-methylamino-4-oxo, (5-methyl-2-(1-methylethyl)cyclohexyl) ester, (1R-(1α,2β,5α))- [Example I(G)] | 5 | 20 | – | –
